The target in the assay is cAMP and cAMP-inhibited cGMP 3',5'-cyclic phosphodiesterase 10A (Homo sapiens, UniProt Q9Y233). Kind of assay: PDE10A assay. In outline: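 Scintillation proximity readout of [3H]cGMP hydrolysis (50 nM final substrate, 15 min) by 2 ng/well human PDE10A after 15 min compound preincubation at RT, pH 7.5 with MgCl2. Four-parameter logistic fit gave IC50, reported as pIC50.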

In general, IC50 refers to the concentration that gives 50% inhibition. Low values mean greater potency, high ones weaker potency. Take `Cn1ncc(C(=O)N2CCC2)c1C(=O)Nc1cc2ccccn2n1` [Roche-Dataset for PDE10A, Compound 1147]: 692 nM corresponded to half-maximal inhibition (IC50). This counts as sub-micromolar. The compound `COC[C@H]1CCCN1c1nc(/C=C/c2nc3c(C)ncc(C)n3n2)n(C)n1` [Roche-Dataset for PDE10A, Compound 388] had an IC50 of 5.53 nM.

With `CNC(=O)c1cn2cc(-c3ccccc3)nc2cc1NC(=O)c1nc(C2CC2)ccc1Nc1cncnc1` [Roche-Dataset for PDE10A, Compound 184], the midpoint of inhibition, the IC50, lay at 0.22 nM. Under `Cn1c(Cl)nc(C(=O)N2CCC2)c1C(=O)Nc1ccn2nc(-c3ccccc3)nc2c1` [Roche-Dataset for PDE10A, Compound 115] stands 0.45 nM; under `CC(C)(NC(=O)c1nc(C2CC2)cnc1Nc1cncnc1)c1nnc(-c2cccnc2)o1` [Roche-Dataset for PDE10A, Compound 1006], 1440 nM; under `Cc1ncc(C)n2nc(/C=C/c3nc(N4CC[C@@H](C)[C@H]4C)nn3C)nc12` [Roche-Dataset for PDE10A, Compound 1115], 32 nM. For the compound `Cn1cc(-c2ccccc2)nc1COc1ncc(Cl)nc1C(=O)NCc1ccccc1` [Roche-Dataset for PDE10A, Compound 297], the IC50 came to 134 nM. In the case of `Cn1cc(-c2ccccc2)nc1/C=C/c1cc(Cl)nc(Cl)n1` [Roche-Dataset for PDE10A, Compound 543], the IC50 was 2310 nM. Under `CCOC(=O)CCc1ccc(NC(=O)c2nc(C3CC3)cnc2Nc2cncnc2)c(C(=O)NC)c1` [US8703768, 321] stands 0.59 nM; under `Cc1ncc(C)n2nc(CCc3nc(N4CC5CC4C5)nn3C)nc12` [Roche-Dataset for PDE10A, Compound 524], 858 nM; under `CN(C)c1nc(OCc2nc(-c3ccccc3)cn2C)nc2ccc(Cl)cc12` [Roche-Dataset for PDE10A, Compound 89], 3.68 nM. `Cc1ccc2nc(OCc3nc(-c4ccccc4)cn3C)c(Cl)nc2c1` [Roche-Dataset for PDE10A, Compound 463] returned an IC50 of 4.23 nM. `Cc1ncc(C)n2nc(CCc3nc(N4CCNCC4)nn3C)nc12` [Roche-Dataset for PDE10A, Compound 515] returned an IC50 of 767 nM. Turning to `Cc1cc(C(=O)Nc2cc3[nH]c(-c4ccccc4)nc3cc2C(F)(F)F)n(C)n1` [Roche-Dataset for PDE10A, Compound 731], the IC50 came out at 10000 nM. Under `Cc1c(-c2ccccc2)nc2n1CC[C@@H](NC(=O)c1c(C(=O)N3CCC3)cnn1C)C2` [Roche-Dataset for PDE10A, Compound 173] stands 11 nM. Take `Cc1c(C(F)F)nc2ccc(CCc3nc(-c4ccccc4)cn3C)nn12` [US10399985, Example 19]: the midpoint of inhibition, the IC50, lay at 5.6 nM.

With `Cn1cc(-c2ccccc2)nc1CCc1nc2ccccc2c(=O)[nH]1` [Roche-Dataset for PDE10A, Compound 170], the IC50 is 60 nM. The compound `Cc1nc2nc(CCc3nc(-c4ccccc4)cn3C)[nH]c(=O)c2n1C` [Roche-Dataset for PDE10A, Compound 687] came in with an IC50 of 331 nM. Regarding `CC(=O)N1CC(C)(C)c2ccc(NC(=O)c3nc(C4CC4)cnc3Nc3cncnc3)cc21` [Roche-Dataset for PDE10A, Compound 952], the IC50 worked out at 7.64 nM. In turn, `O=C(Nc1cc(-c2ccccn2)no1)c1nc(C2CC2)ccc1Nc1cncnc1` [US8470820, 51] gave an IC50 of 3.85 nM. As for `O=C(Nc1ccnc(Cl)n1)c1cn(-c2ccc3ccccc3n2)cn1` [Roche-Dataset for PDE10A, Compound 627], the IC50 worked out at 1230 nM.

Regarding `Cn1cc(-c2ccccc2)nc1COc1cc(N2CCOCC2)nc(-c2cccnc2)n1` [Roche-Dataset for PDE10A, Compound 312], 269 nM corresponded to half-maximal inhibition (IC50). `O=C(Nc1ccnn1CC(F)F)c1nc(C2CC2)ccc1Nc1cncnc1` [Roche-Dataset for PDE10A, Compound 642] showed an IC50 of 46 nM.

`COC[C@H]1CCCN1c1n[nH]c(CCc2nc3c(C)ncc(C)n3n2)n1` [Roche-Dataset for PDE10A, Compound 376]: the IC50 is 8.4 nM. The compound `Cc1ccc(Nc2cncnc2)c(C(=O)Nc2ccn([C@]34C[C@H]5C[C@H](C[C@H](C5)C3)C4)n2)n1` [Roche-Dataset for PDE10A, Compound 610] yielded an IC50 of 52 nM. Turning to `Cc1nc(-c2ccc(Cl)cc2)oc1C(=O)Nc1cc(-c2ccccn2)nn1C` [Roche-Dataset for PDE10A, Compound 947], the IC50 is 967 nM. For the compound `O=C(Nc1ccn(C2CCCC2)n1)c1nc(C2CC2)ccc1Nc1cncnc1` [Roche-Dataset for PDE10A, Compound 580], the IC50 is 5.65 nM. With `O=C(NC1CCS(=O)(=O)CC1)c1nc(C2CC2)cnc1Nc1cncnc1` [Roche-Dataset for PDE10A, Compound 1031], the IC50 was 10000 nM. Turning to `Cn1ncc(C(=O)NCc2cc(C(F)(F)F)ccn2)c1C(=O)Nc1ccn2cc(-c3ccccc3)nc2n1` [Roche-Dataset for PDE10A, Compound 1156], the IC50 stood at 2760 nM. Regarding `O=C(NCCC(=O)N1CCOCC1)c1nc(C2CC2)cnc1Nc1cncnc1` [Roche-Dataset for PDE10A, Compound 591], the midpoint of inhibition, the IC50, lay at 1520 nM. Compared with the last compound, the IC50 is about 1.8-fold lower. As for `Cc1cccc(-c2cn3c(n2)C[C@H](NC(=O)c2c(C(=O)N(C)C)cnn2C)CC3)c1` [Roche-Dataset for PDE10A, Compound 241], the midpoint of inhibition, the IC50, lay at 34 nM. Against the preceding compound, the IC50 is about 45-fold lower. `COCc1ccc(Nc2cncnc2)c(C(=O)Nc2cccc(-c3ccn(C)n3)c2)n1` [Roche-Dataset for PDE10A, Compound 790] gave an IC50 of 5.32 nM. As to `Cn1ncc(C(=O)N2CCC2)c1C(=O)Nc1cc(-c2ccccn2)n[nH]1` [Roche-Dataset for PDE10A, Compound 664], the IC50 came to 8.3 nM. Regarding `NS(=O)(=O)c1ccc(CCNC(=O)c2nc(C3CC3)cnc2Nc2cncnc2)cc1` [Roche-Dataset for PDE10A, Compound 569], half-maximal inhibition (IC50) was put at 300 nM. `CSc1ncc(Br)c(C(=O)Nc2cc(-c3ccccn3)nn2C)n1` [Roche-Dataset for PDE10A, Compound 723]: inhibition was half-maximal at 7590 nM (IC50). `Cc1cnc(C)n2nc(/C=C/c3nc(N4CCCC4)nn3C)nc12` [Roche-Dataset for PDE10A, Compound 474]: the IC50 was found to be 5.37 nM. This IC50 is about 1400-fold lower than that of the compound before. As for `Cc1c(Cl)cc(Cl)c2nc(CCc3nccn3C)nn12` [Roche-Dataset for PDE10A, Compound 972], 166 nM corresponded to half-maximal inhibition (IC50). In the case of `CNC(=O)c1cc2[nH]c(-c3ccccc3)nc2cc1NC(=O)c1oc(CO)nc1C` [Roche-Dataset for PDE10A, Compound 238], the IC50 was determined as 748 nM. With `CNC(=O)Cc1ccccc1NC(=O)c1nc(C2CC2)ccc1Nc1cncnc1` [Roche-Dataset for PDE10A, Compound 809], the IC50 amounted to 53 nM. Against the preceding compound, the IC50 is about 14-fold lower. `Cc1cccc2c(=O)[nH]c(CCc3nc(-c4ccccc4)cn3C)nc12` [Roche-Dataset for PDE10A, Compound 74]: the IC50 amounted to 15 nM. For the compound `CC1(NC(=O)c2ncccc2NC(=O)c2nc(C3CC3)cnc2Nc2cncnc2)COC1` [US8703768, 275], inhibition was half-maximal at 0.38 nM (IC50). Compound `CCOc1ccccc1C(=O)Nc1cc(-c2ccccn2)nn1C` [Roche-Dataset for PDE10A, Compound 666] gave an IC50 of 2380 nM.

On to `O=C(NCc1cnn(-c2ccccc2)n1)c1nc(C2CC2)cnc1Nc1cncnc1` [Roche-Dataset for PDE10A, Compound 727], for which the concentration for half-maximal inhibition (IC50) is 59 nM.

The values are drawn from BindingDB's records for doi:10.1007/s10822-022-00478-x (Roche Innovation Center Basel, F. Hoffmann-La Roche Ltd., 2022).
